Results: patent publication US8420810B2, “Bicyclic heterocyclic compound” (Ono Pharmaceutical, Co., Ltd., priority 2007, dated 2013)

How the values were obtained:
human CRF receptor I [1] = target: T1, human CRF receptor I (Homo sapiens, UniProt P34998); assay: Receptor antagonistic activity (cyclic AMP assay); type: cell-based; details: accumulated cyclic AMP, human/rat CRF stimulation, cells expressing human CRF receptor I, 37° C. 15 minutes
T1 construct: expressed in transfected cells; host or cells: CHO-K1
T1 sequence (P34998 24-415): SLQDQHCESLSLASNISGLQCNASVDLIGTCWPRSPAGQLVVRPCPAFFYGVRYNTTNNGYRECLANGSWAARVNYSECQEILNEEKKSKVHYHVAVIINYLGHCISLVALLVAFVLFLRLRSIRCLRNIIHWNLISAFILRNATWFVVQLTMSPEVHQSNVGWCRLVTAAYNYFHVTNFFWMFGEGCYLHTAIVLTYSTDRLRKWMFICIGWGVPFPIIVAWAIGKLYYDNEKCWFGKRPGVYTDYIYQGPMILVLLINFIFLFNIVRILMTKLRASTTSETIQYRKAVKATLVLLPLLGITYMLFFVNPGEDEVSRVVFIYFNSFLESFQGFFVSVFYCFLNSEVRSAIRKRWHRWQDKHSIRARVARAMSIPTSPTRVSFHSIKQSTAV
Procedure: The forced expression cell strain of the human CRF receptor I was cultured at 37° C. under 5% carbon dioxide and 95% air by using a Ham's F-12 medium (F-12 nutrient mixture) containing 10% bovine fetal serum and 1% antibiotic substance-antifungal agent. On the previous day before the cyclic AMP was measured, the cells were inoculated into a 96-well plate in an amount of 1×10^4 cell/well. On the measurement day, the cells were washed twice with a Ham's F-12 medium, whereby a solution of Ham's F-12 medium/1 mM 3-isobutyl-1-methylxanthine (assay medium) (178 μL) was added to each well. After the incubation at 37° C. for 15 minutes, the solutions (2 μL) of evaluation compound in various concentrations were added thereto, or DMSO (2 μL) was added to a CRF group and a blank group. An assay medium (20 μL) containing 10 nM human/rat CRF was added to wells of an evaluation compound group and the CRF group. An assay medium (20 μL) containing 0.00001% acetic acid was added to the blank group. Each group was further incubated at 37° C. for 15 minutes. The supernatant was removed and ice-colded to stop the reaction. Note that the reactions of 2 wells were the same in all reactions. The measurement for accumulated cyclic AMP amount in cells was carried out by using a cyclic AMP Biotrak enzyme immunoassay system (manufactured by GE Healthcare). The accumulated cyclic AMP amounts were calculated by subtracting mean values of corresponding 2 wells in the blank group from that of 2 wells. The IC50 values were calculated with non-linear regression analysis by defining logarithm concentration of the evaluation compound as independent variable and an accumulated cyclic AMP amount as dependent variable.

human CRF receptor I [2] = target: T1, human CRF receptor I; assay: Binding assay (125I-CRF, membrane fraction); details: 125I-CRF 0.25 nM, membrane fraction of CHO-K1 cells expressing human CRF receptor I, room temperature 2 hours
Procedure: The forced-expression cell strain of the human CRF receptor I (parent strain is CHO-K1 cell) was cultured until the cell was confluent and collected with a scraper. The collected cells were washed twice with PBS, and were suspended with an ice-colded binding assay buffer (Tris-HCl (50 mM, pH 7.0), EDTA (2 mM, pH 8.0), and MgCl2 (10 mM)). After fractured with a dounce-type homogenizer, the suspended cells were centrifuged at 10,000 g, and a membrane fraction was collected. The collected membrane fraction was resuspended with a little amount of the binding assay buffer, thereafter diluted with the binding assay buffer so as to have a concentration of 1 mg/mL. The obtained membrane fraction was used for a binding assay.
^125I-CRF was diluted with the binding assay buffer so as to have a concentration of 0.5 nM, whereby 50 μL of the diluted ^125I-CRF was added to a siliconized 1.5 mL tube. Next, evaluation compounds diluted at appropriate times, DMSO (for general binding), or 100 μM of CRF (for non-specific binding), was added to a […]. Finally, 50 μL of the membrane fraction was added thereto and the reaction was started (final concentration of ^125I-CRF was 0.25 nM). The tube was incubated at room temperature for 2 hours. After the reaction, the tube was centrifuged at 20,000 g in order to collect the membrane fraction. The supernatant was discarded, and the pellet was washed with an ice-colded PBS/0.01% TritonX-100. A membrane binding count was measured using a y counter. The specific binding count was obtained by subtracting the non-specific count from the measured count.

rats = assay: Rat learned helplessness test; type: in vivo; details: oral, once a day for 6 days and 1 hour before the shock training
Procedure: The learned helplessness test was carried out using a two-way shuttle box which is partitioned into two by a gate which can be opened and closed so that travel to right and left becomes possible. On the 1st day of the learned helplessness test, rats were put into the device under un-escapable condition by closing the gate, and a total of 90 times of an electric shock (0.5 mA) was applied to them through a floor grid for 10 seconds at 2 seconds' intervals (shock training). Rats of the control group were left as they are for the same period of time (for 18 minutes) without applying the electric shock. After 24 hours of the shock training, rats were put into the device under escapable condition by opening the gate to carry out an escape test. After 5 minutes of acclimatization, a light stimulus and a sound stimulus (conditioning stimuli) were applied simultaneously for 5 seconds, and subsequent electric shock (un-conditioning stimulus) was applied for 10 seconds. This was regarded as one trial. A case of continuously receiving the electric shock without escape was regarded as escape failure. A total of 40 trials were carried out by setting the interval between respective trials to 5 seconds, and frequency of the escape failure was recorded.
In this connection, the vehicle (20% solvent) and evaluation compound were repeatedly administered once a day for 6 days and further orally administered 1 hour before the shock training.

SD rats = assay: Elevated plus maze test with swim-stressed rat; type: in vivo; details: orally 1 hour before the test
Procedure: 2 open arms with the same lengths (50×10 cm) and 2 close arms (a 30 cm wall was provided) with the same lengths (50×10 cm) were arranged in orthogonal manner at a height of 50 cm from the floor to provide an elevated crossroad maze system. In 70 cm above the both open arms, white light was provided, whereby illuminance was maintained at constant.
SD rats of 7 weeks of age (CHARLES RIVER LABORATORIES JAPAN) were forcedly made to swim for 120 seconds in a pool (40×30×38 cm) at 22° C. of water temperature and 25 cm of water depth. After 9 minutes of soaking stress loading, the rat was put on the center of the system. The activity for 5 minutes of the rat was analyzed with an automatic activity-tracking analysis system (EthoVision Version 3.0, Noldus Information Technology) to calculate the dwell time (second) on the open arm.
Note that no soaking stress was loaded on the control group. In addition, 20% Wellsolve (registered trademark) (5 mL/kg) was orally administered to the vehicle group and evaluation compounds in various concentrations were orally administrated to the evaluation compound administration group 1 hour before the test.

Light stability test = type: physicochemical; details: 2500 Lux (D65 lamp), 25° C., HPLC
Procedure: After weighing 5 mg of an evaluation compound, it was put into a test tube made of glass which was then sealed with a stop cock. Said test tube was stored at 25° C. for 11 days or 20 days under irradiation of 2500 Lux (a D65 lamp was used as the light source). The evaluation compound after 11 days or 20 days of irradiation was determined by an HPLC apparatus. Survival rate (%) of the evaluation compound was calculated by the following formula. Survival rate of evaluation compound (%)=amount of evaluation compound after 11 days or 20 days of irradiation (mg)/weighed value of evaluation compound (mg)×100 <HPLC Conditions> • Apparatus: A 1200 series (manufactured by Agilent Technologies, Inc.), • Column: YMC-Pack C4, A-802, 150×4.6 mm I.D., S-5 μm, 120 A (manufactured by YMC), • Mobile phase: A: water, B: acetonitrile, A/B: 35/65, • Column temperature: room temperature, • Flow rate: 1.0 mL/min.

| Structure (SMILES) | IC50 (human CRF receptor I [1]) [nM] | IC50 (human CRF receptor I [2]) [nM] | increase of the frequency of escape failure for the vehicle group (rats; 10 mg/kg) | mean dwell time on the open arm compared to that of the vehicle group (SD rats) | increase of the frequency of escape failure for the vehicle group (rats; 3 mg/kg) | mean dwell time on the open arm compared to that of the vehicle group (SD rats; 10 mg/kg) | residual ratio after 20 days (Light stability test) [%] |
| --- | --- | --- | --- | --- | --- | --- | --- |
| CCC(CC)c1cc(C)n2nc(-c3ncc(OC)cc3Cl)n(C)c(=O)c12 [Example 24(21), 2-(3-chloro-5-methoxy-2-pyridinyl)-5-(1-ethylpropyl)-3,7-dimethylpyrrolo[2,1-f][1,2,4]triazin-4(3H)-one] | 5.8 | 5.2 | significantly inhibited |  |  |  |  |
| CCc1cc(OC)ccc1-c1nn2c(C)cc(C(CC)CC)c2c(=O)n1C [8(25), 2-(2-ethyl-4-methoxyphenyl)-5-(1-ethylpropyl)-3,7-dimethylpyrrolo[2,1-f][1,2,4]triazin-4(3H)-one] | 1.7 | 3.6 |  | favorably elongated |  |  |  |
| CCC(CC)c1cc(C)n2nc(-c3cnc(OC(F)F)cc3C)n(C)c(=O)c12 [Example 13, 2-[6-(difluoromethoxy)-4-methyl-3pyridinyl]-5-(1-ethylpropyl)-3,7-dimethylpyrrolo[2,1-f][1,2,4]triazin-4(3H)-one] | 3.2 | 5.3 |  |  | significantly inhibited |  |  |
| CCN(CC)c1cc(C)n2nc(-c3ccc(OC)cc3Cl)n(C)c(=O)c12 [Example 65, 2-(2-chloro-4-methoxyphenyl)-5-(diethylamino)-3,7-dimethylpyrrolo[2,1-f][1,2,4]triazin-4(3H)-one] | 3.5 | 4.9 |  |  |  |  |  |
| CCn1c(-c2ccc(SC)cc2C)nn2c(C)cc(C(C)C)c2c1=O [Example 23, 3-ethyl-5-isopropyl-7-methyl-2-[2-methyl-4-(methylthio)phenyl]pyrrolo[2,1-f][1,2,4]triazin-4(3H)-one] | 9.6 | 11 |  |  |  | favorably elongated |  |
| CCC(CC)c1cc(C)n2nc(-c3ccc(OC)cc3C)n(CCO)c(=O)c12 [8(44), 5-(1-ethylpropyl)-3-(2-hydroxyethyl)-2-(4-methoxy-2-methylphenyl)-7-methylpyrrolo[2,1-f][1,2,4]triazin-4(3H)-one] | 4.2 | 7.8 |  |  |  |  |  |
| CCCC(C)c1cc(C)n2nc(-c3cnc(OC(F)F)cc3C)n(C)c(=O)c12 (stereo not drawn) [28(10), 2-[6-(difluoromethoxy)-4-methyl-3-pyridinyl]-3,7-dimethyl-5-(1-methylbutyl)pyrrolo[2,1-f][1,2,4]triazin-4(3H)-one] | 17.1 | 20.7 |  | favorably elongated |  |  |  |
| CCC(CC)c1cc(C)n2nc(-c3c(C)nc(N(C)C)nc3C)n(C)c(=O)c12 [8(27), 2-[2-(dimethylamino)-4,6-dimethyl-5-pyrimidinyl]-5-(1-ethylpropyl)-3,7-dimethylpyrrolo[2,1-f][1,2,4]triazin-4(3H)-one] | 9.4 | 14.7 |  |  |  |  |  |
| CCCC(C)c1cc(C)n2nc(-c3ccc(SC)cc3Cl)n(C)c(=O)c12 (stereo not drawn) [Example 22, 2-[2-chloro-4-(methylthio)phenyl]-3,7-dimethyl-5-(1-methylbutyl)pyrrolo[2,1-f][1,2,4]triazin-4(3H)-one] | 1.9 | 2.1 |  |  | significantly inhibited |  |  |
| CCC(CC)c1cc(C)n2nc(-c3ccc(OC(F)(F)F)cc3Cl)n(C)c(=O)c12 [Example 8, 2-[2-chloro-4-(trifluoromethoxy)phenyl]-5-(1-ethylpropyl)-3,7-dimethylpyrrolo[2,1-f][1,2,4]triazin-4(3H)-one] | 1.8 | 6.1 | significantly inhibited |  |  | favorably elongated | 99 |
| CCC(CC)c1cc(C)n2nc(-c3ccc(OC)cc3C)n(CC(N)=O)c(=O)c12 [8(38), 2-[5-(1-ethylpropyl)-2-(4-methoxy-2-methylphenyl)-7-methyl-4-oxopyrrolo[2,1-f][1,2,4]triazin-3(4H)-yl]acetamide] | 34.8 | 23.5 |  |  |  |  |  |
| CCC(CC)c1cc(C)n2nc(-c3sc(N(C)C)nc3Cl)n(C)c(=O)c12 [8(48), 2-[4-chloro-2-(dimethylamino)-1,3-thiazol-5-yl]-5-(1-ethylpropyl)-3,7-dimethylpyrrolo[2,1-f][1,2,4]triazin-4(3H)-one] | 1.2 | 7.2 |  |  |  |  |  |
